Activity calls are given as the source filed them. The rule behind the calls is not given here.
How the values were obtained:
[1] = biological target: T1, Orexin/Hypocretin receptor type 1 (Homo sapiens, UniProt O43613); experiment: Displacement of [3H]-4-(2,6-Difluoro-4-methoxybenzyl)-2-(5,6-dimethoxypyridin-3-yl)-2H-1,2,4-benzothiadiazin-3(4H)-one 1,1-dioxide from orexin receptor-1 (unknown origin) after 90 mins
T1 sequence (O43613 whole entry): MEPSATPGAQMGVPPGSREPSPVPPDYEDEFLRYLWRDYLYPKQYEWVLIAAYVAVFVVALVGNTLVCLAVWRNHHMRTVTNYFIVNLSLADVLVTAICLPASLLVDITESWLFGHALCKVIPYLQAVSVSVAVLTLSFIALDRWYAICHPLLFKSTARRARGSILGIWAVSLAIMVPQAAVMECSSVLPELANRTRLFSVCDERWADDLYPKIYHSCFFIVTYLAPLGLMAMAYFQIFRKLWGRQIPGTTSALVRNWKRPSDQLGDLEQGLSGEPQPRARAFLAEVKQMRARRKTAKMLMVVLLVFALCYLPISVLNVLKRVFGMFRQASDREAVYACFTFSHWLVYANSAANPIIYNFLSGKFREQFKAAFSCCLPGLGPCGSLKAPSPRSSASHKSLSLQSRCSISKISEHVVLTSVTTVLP

[2] = Half life in rat liver microsomes; format: ADME
[3] = Mean residence time in beagle dog; format: ADME, organism-based, Canis lupus familiaris; conditions: in vivo
[4] = Clearance in beagle dog at 1 mg/kg, iv; format: ADME, organism-based, Canis lupus familiaris; conditions: in vivo
[5] = Ratio of drug level in brain to plasma in Sprague-Dawley rat at 1 mg/kg, iv after 0.5 hrs; format: ADME, organism-based; conditions: read-out: BPR
[6] = Half life in beagle dog at 1 mg/kg, po; format: ADME, organism-based, Canis lupus familiaris; conditions: in vivo
[7] = tested on: Rattus norvegicus; experiment: AUC (infinity) in Sprague-Dawley rat at 2 mg/kg, po; format: ADME, organism-based; parameters: dose 2 mg/kg, route oral, time infinity; conditions: in vivo
[8] = Tmax in beagle dog at 1 mg/kg, po; format: ADME, organism-based, Canis lupus familiaris; conditions: in vivo
[9] = Oral bioavailability in beagle dog at 1 mg/kg; format: ADME, organism-based, Canis lupus familiaris; conditions: in vivo
[10] = biological target: T2, Cytochrome P450 2C8 (Homo sapiens, UniProt P10632); experiment: Inhibition of CYP2C8 (unknown origin); format: ADME
T2 sequence (P10632 whole entry): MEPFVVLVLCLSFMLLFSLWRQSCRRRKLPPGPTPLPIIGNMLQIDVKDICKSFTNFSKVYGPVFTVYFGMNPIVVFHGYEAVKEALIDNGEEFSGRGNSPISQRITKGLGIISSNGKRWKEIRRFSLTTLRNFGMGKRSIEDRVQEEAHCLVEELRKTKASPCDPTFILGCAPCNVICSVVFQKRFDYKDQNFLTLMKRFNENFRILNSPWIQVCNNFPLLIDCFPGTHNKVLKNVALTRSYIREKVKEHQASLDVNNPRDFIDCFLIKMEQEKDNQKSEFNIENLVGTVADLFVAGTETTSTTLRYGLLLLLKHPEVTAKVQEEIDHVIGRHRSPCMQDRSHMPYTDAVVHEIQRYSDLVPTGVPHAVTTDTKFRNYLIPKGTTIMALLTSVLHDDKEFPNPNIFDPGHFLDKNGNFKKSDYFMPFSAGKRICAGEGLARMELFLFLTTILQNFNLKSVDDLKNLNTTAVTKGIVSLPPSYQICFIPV

[11] = biological target: Cytochrome P450 2C9 (Homo sapiens, UniProt P11712); experiment: Inhibition of CYP2C9 (unknown origin); format: ADME
[12] = biological target: Cytochrome P450 2C19 (Homo sapiens, UniProt P33261); experiment: Inhibition of CYP2C19 (unknown origin); format: ADME
[13] = biological target: Cytochrome P450 2D6 (Homo sapiens, UniProt P10635); experiment: Inhibition of CYP2D6 (unknown origin); format: ADME
[14] = biological target: Cytochrome P450 3A4 (Homo sapiens, UniProt P08684); experiment: Inhibition of CYP3A4 (unknown origin); format: ADME
[15] = Efflux ratio of the compound in human Caco2 cells; format: ADME, cell-based; conditions: Caco-2
[16] = Plasma protein binding in human; format: ADME, cell-free; conditions: read-out: PPB (converted)
[17] = Half life in rat hepatocytes; format: ADME, cell-based, Hepatocyte
[18] = Half life in dog hepatocytes; format: ADME, cell-based, Canis lupus familiaris, Hepatocyte
[19] = Half life in human hepatocytes; format: ADME, cell-based, Hepatocyte
[20] = tested on: Salmonella typhimurium; experiment: Genotoxicity in Salmonella typhimurium by Ames test in presence of S9 fraction; format: toxicity, organism-based; conditions: salmonella enterica subsp. enterica serovar typhimurium
[21] = tested on: Rattus norvegicus; experiment: Ex-vivo receptor occupancy of orexin receptor-2 Sprague-Dawley rat frontal cortex using [3H]EMPA at 1 mg/kg, po after 1 hr by autoradiography relative to control; format: functional
[22] = tested on: Rattus norvegicus; experiment: Antiinsomnic activity in CD1 rat assessed as hypnotic effect at 3 to 10 mg/kg, po administered at circadian time 18 hrs measured after 2 to 3 hrs; format: functional, organism-based
[23] = tested on: Rattus norvegicus; experiment: Antiinsomnic activity in CD1 rat assessed as reduction of time spent awake at 3 to 10 mg/kg, po administered at circadian time 18 hrs measured after 3 hrs; format: functional; parameters: scale not given: the % may be the effect or the level left
[24] = tested on: Rattus norvegicus; experiment: Antiinsomnic activity in CD1 rat assessed as increase of REM sleep at 3 mg/kg, po administered at circadian time 18 hrs measured after 3 hrs; format: functional
[25] = tested on: Rattus norvegicus; experiment: Antiinsomnic activity in CD1 rat assessed as increase of REM sleep at 10 mg/kg, po administered at circadian time 18 hrs measured after 3 hrs; format: functional
[26] = tested on: Rattus norvegicus; experiment: Antiinsomnic activity in CD1 rat assessed as reduction of time taken for latency to first REM episode at 10 mg/kg, po administered at 18 hrs after circadian time; format: functional; parameters: scale not given: the % may be the effect or the level left
[27] = biological target: T3, Orexin/Hypocretin receptor type 1 (Homo sapiens) (UniProt O43613)
T3 sequence (whole entry): T1 sequence (O43613 whole entry)

[28] = biological target: T4, Orexin receptor type 2 (Homo sapiens) (UniProt O43614)
T4 sequence (whole entry): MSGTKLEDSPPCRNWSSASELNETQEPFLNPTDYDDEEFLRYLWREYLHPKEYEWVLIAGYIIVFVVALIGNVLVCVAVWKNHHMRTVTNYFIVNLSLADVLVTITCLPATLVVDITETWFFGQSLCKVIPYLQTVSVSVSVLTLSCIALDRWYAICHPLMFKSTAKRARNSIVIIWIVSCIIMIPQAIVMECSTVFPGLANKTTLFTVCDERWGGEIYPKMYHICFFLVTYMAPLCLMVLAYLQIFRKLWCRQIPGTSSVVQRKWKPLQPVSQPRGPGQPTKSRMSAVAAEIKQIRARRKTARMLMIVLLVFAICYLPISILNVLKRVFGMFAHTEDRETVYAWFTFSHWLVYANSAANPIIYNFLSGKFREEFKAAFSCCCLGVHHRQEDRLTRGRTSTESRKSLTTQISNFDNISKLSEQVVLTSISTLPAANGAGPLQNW
Description: Binding affinity to orexin receptor-2 (unknown origin) assessed as dissociation half-life by SPR assay

[29] = biological target: T4, Orexin receptor type 2 (Homo sapiens); remark: listed apart in the source
Description: Binding affinity to orexin receptor-2 (unknown origin) assessed as dissociation half-life by Motulsky-Mahan radioligand binding assay

[30] = biological target: T4, Orexin receptor type 2 (Homo sapiens); conditions: CHO
Description: Antagonist activity at human orexin receptor-2 expressed in CHO cells assessed as orexin-A-induced ERK1/2 phosphorylation after 2 hrs by fluorescence assay

Sequence of Cytochrome P450 3A4 (P08684 whole entry): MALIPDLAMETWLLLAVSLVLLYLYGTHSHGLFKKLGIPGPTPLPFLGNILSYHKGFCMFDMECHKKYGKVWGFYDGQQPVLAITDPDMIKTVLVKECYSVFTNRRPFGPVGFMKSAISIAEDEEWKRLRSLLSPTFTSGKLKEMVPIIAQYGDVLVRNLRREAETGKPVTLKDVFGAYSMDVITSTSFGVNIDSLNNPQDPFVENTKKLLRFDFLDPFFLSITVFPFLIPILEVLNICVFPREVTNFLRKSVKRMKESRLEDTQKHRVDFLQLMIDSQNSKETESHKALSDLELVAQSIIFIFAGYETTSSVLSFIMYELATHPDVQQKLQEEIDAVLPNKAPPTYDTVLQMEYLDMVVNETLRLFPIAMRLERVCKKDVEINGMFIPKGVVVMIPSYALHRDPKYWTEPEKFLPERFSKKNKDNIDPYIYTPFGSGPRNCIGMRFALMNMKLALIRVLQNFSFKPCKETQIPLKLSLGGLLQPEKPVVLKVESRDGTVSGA
Sequence of Cytochrome P450 2C19 (P33261 whole entry): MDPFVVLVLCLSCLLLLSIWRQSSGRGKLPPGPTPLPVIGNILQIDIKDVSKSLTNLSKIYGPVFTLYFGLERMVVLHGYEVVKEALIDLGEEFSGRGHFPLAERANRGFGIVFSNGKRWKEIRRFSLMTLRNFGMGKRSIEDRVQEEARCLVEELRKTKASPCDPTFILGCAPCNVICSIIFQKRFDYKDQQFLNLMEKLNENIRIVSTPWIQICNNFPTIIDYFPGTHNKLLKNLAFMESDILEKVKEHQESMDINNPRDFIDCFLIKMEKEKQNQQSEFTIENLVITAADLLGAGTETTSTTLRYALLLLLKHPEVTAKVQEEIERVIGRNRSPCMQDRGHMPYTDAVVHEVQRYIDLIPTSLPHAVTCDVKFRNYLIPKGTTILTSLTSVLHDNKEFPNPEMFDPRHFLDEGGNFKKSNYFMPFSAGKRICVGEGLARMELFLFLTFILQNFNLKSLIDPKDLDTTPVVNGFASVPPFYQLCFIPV
Sequence of Cytochrome P450 2C9 (P11712 whole entry): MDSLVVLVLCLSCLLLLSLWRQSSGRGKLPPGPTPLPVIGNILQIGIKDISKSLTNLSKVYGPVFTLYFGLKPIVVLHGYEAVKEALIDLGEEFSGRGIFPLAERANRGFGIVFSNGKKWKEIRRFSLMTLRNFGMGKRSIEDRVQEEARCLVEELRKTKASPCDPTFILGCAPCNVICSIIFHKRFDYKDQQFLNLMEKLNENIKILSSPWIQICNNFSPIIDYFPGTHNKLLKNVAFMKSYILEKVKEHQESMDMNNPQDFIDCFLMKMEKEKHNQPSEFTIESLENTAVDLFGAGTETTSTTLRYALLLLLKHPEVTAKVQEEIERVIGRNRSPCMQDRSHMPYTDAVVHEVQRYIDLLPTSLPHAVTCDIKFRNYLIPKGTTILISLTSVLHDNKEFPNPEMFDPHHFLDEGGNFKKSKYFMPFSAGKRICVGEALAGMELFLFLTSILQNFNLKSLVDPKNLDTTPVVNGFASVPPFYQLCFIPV
Sequence of Cytochrome P450 2D6 (P10635 whole entry): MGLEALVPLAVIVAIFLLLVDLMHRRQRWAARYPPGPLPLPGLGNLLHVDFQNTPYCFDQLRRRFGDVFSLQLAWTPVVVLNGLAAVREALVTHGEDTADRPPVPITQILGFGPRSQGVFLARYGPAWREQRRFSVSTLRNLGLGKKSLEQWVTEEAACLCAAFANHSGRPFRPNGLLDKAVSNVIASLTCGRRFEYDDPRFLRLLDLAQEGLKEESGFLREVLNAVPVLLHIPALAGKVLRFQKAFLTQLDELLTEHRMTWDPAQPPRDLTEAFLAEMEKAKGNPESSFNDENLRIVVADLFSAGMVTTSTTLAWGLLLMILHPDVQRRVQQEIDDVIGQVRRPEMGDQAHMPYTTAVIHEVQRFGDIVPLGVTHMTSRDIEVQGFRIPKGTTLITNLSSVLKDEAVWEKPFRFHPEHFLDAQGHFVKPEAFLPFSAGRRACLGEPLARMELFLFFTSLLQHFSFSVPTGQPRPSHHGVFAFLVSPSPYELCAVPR

Ki [1]: 0.02 µM
half-life [2]: 23 min
MRT [3]: 240 min
clearance [4]: 13 mL/min/kg
Kp at 0.5 h [5]: 0.49
half-life [6]: 426 min
AUC [7]: 1220 ng·h/mL
Tmax [8]: 24 min
bioavailability [9]: 70%
IC50 [10]: > 10 µM
IC50 [11]: > 10 µM
IC50 [12]: > 10 µM
IC50 [13]: > 10 µM
IC50 [14]: > 10 µM
efflux ratio [15]: 0.7
fraction unbound [16]: 0.007
half-life [17]: > 110 min
half-life [18]: > 110 min
half-life [19]: > 250 min
T1/2 [27]: 0.8 min
T1/2 [28]: 4.2 min
T1/2 [29]: 7.6 min
pKb [30]: 7.3
SMILES: COc1cc(N2C(=O)N(Cc3c(F)cc(F)cc3F)c3ncccc3S2(=O)=O)cnc1OC
Activity [20]: Non-toxic
Occ [21]: 57%
Activity [22]: Active
Activity [23]: 18.5%
Activity [24]: 70.6%
Activity [25]: 69.6%
Activity [26]: 35%

— ChEMBL document CHEMBL3739366, “Discovery of HTL6641, a dual orexin receptor antagonist with differentiated pharmacodynamic properties” (Medchemcomm, 2015)
